Patent US20040023994A1 (priority 2002, published 2004)
Like-named read-outs stand apart in the source and are kept apart here.

Legend:
KM12 [1] = details: KM12, Colon, NCI database, cited from earlier work
MDA-N = details: Breast, NCI database, cited from earlier work
OVCAR-3 = details: OVCAR-3, Ovarian, NCI database, cited from earlier work
HL-60(TB) = details: cited from earlier work
TK-10 = details: TK-10, Renal, NCI database, cited from earlier work
SNB-19 = details: SNB-19, CNS, NCI database, cited from earlier work
LOX IMVI [2] = details: Melanoma, NCI database, cited from earlier work
UACC-257 [3] = details: UACC-257, Melanoma, NCI database, cited from earlier work
A549/ATCC [4] = details: Non-Small Cell Lung, NCI database, cited from earlier work
UACC-62 = details: UACC-62, Melanoma, NCI database, cited from earlier work
OVCAR-5 [5] = details: OVCAR-5, Ovarian, NCI database, cited from earlier work
SF-295 = details: SF-295, CNS, NCI database, cited from earlier work
COLO 205 = details: COLO 205, Colon, NCI database, cited from earlier work
M14 = details: M14, Melanoma, 48 h
PC-3 = type: cell-based; details: PC-3, Prostate, 48 h
UACC-257 [6] = details: UACC-257, Melanoma, 48 h
LOX IMVI [7] = test system: LOX IMVI
HCT-116 = details: HCT-116, Colon, 48 h
HCT-15 = details: HCT-15, Colon, 48 h
SK-MEL-28 = details: SK-MEL-28, Melanoma, 48 h
NCI-H23 = type: cell-based; details: NCI-H23, Non-Small Cell Lung, 48 h
KM12 [8] = details: KM12, Colon, 48 h
OVCAR-5 [9] = details: OVCAR-5, Ovarian, 48 h
SNB-75 = details: SNB-75, CNS, 48 h
A549/ATCC [10] = details: A549/ATCC, Non-Small Cell Lung, 48 h
[11] = read-out: LC50 (the source's name)

For `Sc1ncnc2nc[nH]c12` [6-MP, 6-mercaptopurine], the GI50 (KM12 [1]) is given as 7.31 µM, the TGI (KM12 [1]) is given as greater than 100 µM and the CC50 (KM12 [1]; [11]) is given as greater than 100 µM. The CC50 (MDA-N; [11]) was greater than 100 µM, the GI50 (MDA-N) was 1.5 µM and the TGI (MDA-N) was greater than 100 µM. For the same molecule, the GI50 (OVCAR-3) was 0.71 µM, the TGI (OVCAR-3) was greater than 100 µM and the CC50 (OVCAR-3; [11]) was greater than 100 µM. For the same molecule, the GI50 (HL-60(TB); Leukemia, NCI database) was 2.3 µM, the TGI (HL-60(TB); Leukemia, NCI database) was greater than 100 µM and the CC50 (HL-60(TB); read-out: LC50, Leukemia, NCI database) was greater than 100 µM. The GI50 (TK-10) was 1.83 µM, the TGI (TK-10) was greater than 100 µM and the CC50 (TK-10; [11]) was greater than 100 µM. For the same molecule, the GI50 (SNB-19) was greater than 100 µM, the TGI (SNB-19) was greater than 100 µM and the CC50 (SNB-19; [11]) was greater than 100 µM. The CC50 (LOX IMVI [2]; [11]) was greater than 100 µM, the GI50 (LOX IMVI [2]) was 0.35 µM and the TGI (LOX IMVI [2]) was greater than 100 µM. The GI50 (UACC-257 [3]) was 14.2 µM, the TGI (UACC-257 [3]) was greater than 100 µM and the CC50 (UACC-257 [3]; [11]) was greater than 100 µM. The CC50 (A549/ATCC [4]; [11]) was greater than 100 µM, the GI50 (A549/ATCC [4]) was 27.7 µM and the TGI (A549/ATCC [4]) was greater than 100 µM. The GI50 (UACC-62) was 1.63 µM, the TGI (UACC-62) was greater than 100 µM and the CC50 (UACC-62; [11]) was greater than 100 µM. For the same molecule, the GI50 (OVCAR-5 [5]) was 7.85 µM, the TGI (OVCAR-5 [5]) was greater than 100 µM and the CC50 (OVCAR-5 [5]; [11]) was greater than 100 µM. For the same molecule, the GI50 (SF-295) was 5.36 µM, the TGI (SF-295) was greater than 100 µM and the CC50 (SF-295; [11]) was greater than 100 µM. The GI50 (COLO 205) was 4.68 µM, the TGI (COLO 205) was greater than 100 µM and the CC50 (COLO 205; [11]) was greater than 100 µM.

`CC(=O)C=CSc1nc(N)nc2nc[nH]c12` [trans-AVTG, 6-(2-acetylvinylthio) guanine] showed a GI50 (M14) of 0.45 µM, a TGI (M14) of 12.0 µM and a CC50 (M14; read-out: LC50) of 53.5 µM. It also gave a GI50 (PC-3) of 3.96 µM, a TGI (PC-3) of 19.7 µM and a GI50 (UACC-257 [6]) of 11.6 µM. It also gave a TGI (UACC-257 [6]) greater than 100 µM, a CC50 (UACC-257 [6]; read-out: LC50) greater than 100 µM and a GI50 (CCRF-CEM; Leukemia, 48 h) of 0.14 µM. It also gave a TGI (CCRF-CEM; Leukemia, 48 h) of 1.83 µM, a CC50 (CCRF-CEM; read-out: LC50, Leukemia, 48 h) of 54.8 µM and a GI50 (LOX IMVI [7]; Melanoma, 48 h) of 0.2 µM. It also gave a TGI (LOX IMVI [7]; Melanoma, 48 h) of 2.39 µM, a CC50 (LOX IMVI [7]; read-out: LC50, Melanoma, 48 h) of 82.5 µM and a GI50 (HCT-116) of 0.67 µM. For the same molecule, the TGI (HCT-116) was 3.01 µM, the CC50 (HCT-116; read-out: LC50) was 14.7 µM and the GI50 (HCT-15) was 1.73 µM. The TGI (HCT-15) was 19.4 µM, the CC50 (HCT-15; read-out: LC50) was greater than 100 µM and the GI50 (NCI/ADR-RES; Breast, 48 h) was 0.35 µM. The TGI (NCI/ADR-RES; Breast, 48 h) was 7.40 µM, the CC50 (NCI/ADR-RES; read-out: LC50, Breast, 48 h) was greater than 100 µM and the GI50 (SK-MEL-28) was 11.6 µM. It also gave a TGI (SK-MEL-28) of 24.8 µM, a CC50 (SK-MEL-28; read-out: LC50) of 52.7 µM and a GI50 (NCI-H23) of 3.05 µM. For the same molecule, the TGI (NCI-H23) was 16.3 µM, the GI50 (KM12 [8]) was 2.71 µM and the TGI (KM12 [8]) was 13.0 µM. It also gave a CC50 (KM12 [8]; read-out: LC50) of 64.8 µM, a GI50 (OVCAR-5 [9]) of 0.54 µM and a TGI (OVCAR-5 [9]) of 6.04 µM. The CC50 (OVCAR-5 [9]; read-out: LC50) was 57.7 µM, the GI50 (SNB-75) was 9.17 µM and the TGI (SNB-75) was greater than 100 µM. It also gave a CC50 (SNB-75; read-out: LC50) greater than 100 µM, a GI50 (A549/ATCC [10]) of 5.75 µM and a TGI (A549/ATCC [10]) of 32.8 µM. The CC50 (A549/ATCC [10]; read-out: LC50) was greater than 100 µM.
